Reference: patent publication US20250120932A1, “PHARMACEUTICAL COMPOSITION” (NEUROPRO THERAPEUTICS, INC., priority 2021, published 2025)

Experiment: Pharmacokinetic study in cynomolgus monkeys after oral (nasogastric) gavage, sublingual and intravenous administration
Type: in vivo
Details: cynomolgus monkey, plasma, Plasma Bumetanide Dibenzylamide concentration, monkey; for concentration at 0.5 h: 0.50 h
Method: A pharmacokinetic study was done in cynomolgus monkeys following single oral (nasogastric) gavage, sublingual, and intravenous administration. […] Calibration curves, blanks, and analytical QCs were prepared in monkey plasma (K2EDTA). The extracts were evaporated to dryness, reconstituted, and then analyzed by LC-MS/MS. The calibration range was 0.250-250 ng/mL for both analytes.
If the criteria for either the calibration curve or the analytical QCs were not met, the analytical run was rejected. […] No deviations were found during the bioanalytical phase of the study conducted by Origin. Calibration curves were derived from the individual analyte to internal standard peak area ratios using the least squared regression of the ratio versus the nominal concentration of the calibration standard, prepared in duplicate. The regression was then used to back-calculate the concentration of each calibration standard, QC sample and study sample. […] Analyst® Software Version 1.6.3 (Applied Biosystems-MDS Sciex), operated with Windows® (Microsoft), was used for instrument control, data acquisition, and peak integrations. Peak area ratios, standard curve regressions, and sample concentration/accuracy values were calculated with Analyst® Software Version 1.6.3. Other results (e.g., mean statistics) were calculated with Excel® (Microsoft).
There was no apparent sex difference for the second formulation. […] A fourth formulation comprising the composition B listed in Table 54 was also administered in monheys.

[1] = both sexes, oral, 30 mg/kg, Mean, NG 30 mg/kg, First Formulation (Form 1), N=4
[2] = both sexes, oral, 30 mg/kg, Mean, NG 30 mg/kg, Second Formulation (Form 3), N=4
[3] = both sexes, oral, 30 mg/kg, Median, NG 30 mg/kg, First Formulation (Form 1), N=4
[4] = both sexes, oral, 30 mg/kg, Median, NG 30 mg/kg, Second Formulation (Form 3), N=4
[5] = intravenous, 2 mg/kg, Mean, dose column 2 mg/kg (title 30 mg/kg), Third Formulation (Form 4), N=4
[6] = intravenous, 2 mg/kg, dose column 2 mg/kg (title 30 mg/kg), Third Formulation (Form 4), individual animals
[7] = other: sublingual, 5 mg/kg, Mean, SL, dose column 5 mg/kg (title 30 mg/kg), Fourth Formulation (Form 2), N=4
[8] = other: sublingual, 5 mg/kg, Median, SL, dose column 5 mg/kg (title 30 mg/kg), Fourth Formulation (Form 2), N=4
[9] = other: sublingual, 5 mg/kg, SL, dose column 5 mg/kg (title 30 mg/kg), Fourth Formulation (Form 2), individual animals

concentration at 0 h [1]: 0 ng/mL
concentration at 0.25 h [1]: 4.31 ng/mL
concentration at 0.5 h [1]: 5.9 ng/mL
concentration at 1 h (both sexes, oral, 30 mg/kg, Mean, NG 30 mg/kg, First Formulation (Form 1), 1.00 h, N=4): 13.2 ng/mL
concentration at 2 h (both sexes, oral, 30 mg/kg, Mean, NG 30 mg/kg, First Formulation (Form 1), 2.00 h, N=4): 62.6 ng/mL
concentration at 4 h (both sexes, oral, 30 mg/kg, Mean, NG 30 mg/kg, First Formulation (Form 1), 4.00 h, N=4): 66.8 ng/mL
concentration at 8 h (both sexes, oral, 30 mg/kg, Mean, NG 30 mg/kg, First Formulation (Form 1), 8.00 h, N=4): 44.9 ng/mL
concentration at 24 h (both sexes, oral, 30 mg/kg, Mean, NG 30 mg/kg, First Formulation (Form 1), 24.00 h, N=4): 8.59 ng/mL
concentration at 32 h (both sexes, oral, 30 mg/kg, Mean, NG 30 mg/kg, First Formulation (Form 1), 32.00 h, N=4): 4.51 ng/mL
concentration at 0 h [2]: 0 ng/mL
concentration at 0.25 h [2]: 0.283 ng/mL
concentration at 0.5 h [2]: 2.85 ng/mL
concentration at 1 h (both sexes, oral, 30 mg/kg, Mean, NG 30 mg/kg, Second Formulation (Form 3), 1.00 h, N=4): 11.5 ng/mL
concentration at 2 h (both sexes, oral, 30 mg/kg, Mean, NG 30 mg/kg, Second Formulation (Form 3), 2.00 h, N=4): 54.1 ng/mL
concentration at 4 h (both sexes, oral, 30 mg/kg, Mean, NG 30 mg/kg, Second Formulation (Form 3), 4.00 h, N=4): 231 ng/mL
concentration at 8 h (both sexes, oral, 30 mg/kg, Mean, NG 30 mg/kg, Second Formulation (Form 3), 8.00 h, N=4): 590 ng/mL
concentration at 24 h (both sexes, oral, 30 mg/kg, Mean, NG 30 mg/kg, Second Formulation (Form 3), 24.00 h, N=4): 13.6 ng/mL
concentration at 32 h (both sexes, oral, 30 mg/kg, Mean, NG 30 mg/kg, Second Formulation (Form 3), 32.00 h, N=4): 2.94 ng/mL
concentration at 0 h [3]: 0 ng/mL
concentration at 0.25 h [3]: 0.962 ng/mL
concentration at 0.5 h [3]: 2.82 ng/mL
concentration at 1 h (both sexes, oral, 30 mg/kg, Median, NG 30 mg/kg, First Formulation (Form 1), 1.00 h, N=4): 10.1 ng/mL
concentration at 2 h (both sexes, oral, 30 mg/kg, Median, NG 30 mg/kg, First Formulation (Form 1), 2.00 h, N=4): 42.6 ng/mL
concentration at 4 h (both sexes, oral, 30 mg/kg, Median, NG 30 mg/kg, First Formulation (Form 1), 4.00 h, N=4): 37.6 ng/mL
concentration at 8 h (both sexes, oral, 30 mg/kg, Median, NG 30 mg/kg, First Formulation (Form 1), 8.00 h, N=4): 31.3 ng/mL
concentration at 24 h (both sexes, oral, 30 mg/kg, Median, NG 30 mg/kg, First Formulation (Form 1), 24.00 h, N=4): 5.38 ng/mL
concentration at 32 h (both sexes, oral, 30 mg/kg, Median, NG 30 mg/kg, First Formulation (Form 1), 32.00 h, N=4): 3.75 ng/mL
concentration at 0 h [4]: 0 ng/mL
concentration at 0.25 h [4]: 0.256 ng/mL
concentration at 0.5 h [4]: 2.44 ng/mL
concentration at 1 h (both sexes, oral, 30 mg/kg, Median, NG 30 mg/kg, Second Formulation (Form 3), 1.00 h, N=4): 9.43 ng/mL
concentration at 2 h (both sexes, oral, 30 mg/kg, Median, NG 30 mg/kg, Second Formulation (Form 3), 2.00 h, N=4): 58.6 ng/mL
concentration at 4 h (both sexes, oral, 30 mg/kg, Median, NG 30 mg/kg, Second Formulation (Form 3), 4.00 h, N=4): 194 ng/mL
concentration at 8 h (both sexes, oral, 30 mg/kg, Median, NG 30 mg/kg, Second Formulation (Form 3), 8.00 h, N=4): 566 ng/mL
concentration at 24 h (both sexes, oral, 30 mg/kg, Median, NG 30 mg/kg, Second Formulation (Form 3), 24.00 h, N=4): 10 ng/mL
concentration at 32 h (both sexes, oral, 30 mg/kg, Median, NG 30 mg/kg, Second Formulation (Form 3), 32.00 h, N=4): 1.86 ng/mL
concentration at 0 h (both sexes, oral, 30 mg/kg, NG 30 mg/kg, First Formulation (Form 1), individual animals): 0 ng/mL
concentration at 0 h (both sexes, oral, 30 mg/kg, NG 30 mg/kg, Second Formulation (Form 3), individual animals): 0 ng/mL
concentration at 8 h (both sexes, oral, 30 mg/kg, NG 30 mg/kg, Second Formulation (Form 3), 8.00 h, individual animals): 442 ng/mL
concentration at 0.08 h [5]: 1440 ng/mL
concentration at 0.5 h [5]: 664 ng/mL
concentration at 1 h (intravenous, 2 mg/kg, Mean, dose column 2 mg/kg (title 30 mg/kg), Third Formulation (Form 4), 1.00 h, N=4): 483 ng/mL
concentration at 2 h (intravenous, 2 mg/kg, Mean, dose column 2 mg/kg (title 30 mg/kg), Third Formulation (Form 4), 2.00 h, N=4): 285 ng/mL
concentration at 4 h (intravenous, 2 mg/kg, Mean, dose column 2 mg/kg (title 30 mg/kg), Third Formulation (Form 4), 4.00 h, N=4): 114 ng/mL
concentration at 8 h (intravenous, 2 mg/kg, Mean, dose column 2 mg/kg (title 30 mg/kg), Third Formulation (Form 4), 8.00 h, N=4): 30.7 ng/mL
concentration at 24 h (intravenous, 2 mg/kg, Mean, dose column 2 mg/kg (title 30 mg/kg), Third Formulation (Form 4), 24.00 h, N=4): 3.57 ng/mL
concentration at 32 h (intravenous, 2 mg/kg, Mean, dose column 2 mg/kg (title 30 mg/kg), Third Formulation (Form 4), 32.00 h, N=4): 1.48 ng/mL
concentration at 0.08 h [6]: 1860 ng/mL
concentration at 0.5 h [6]: 717 ng/mL
concentration at 1 h (intravenous, 2 mg/kg, dose column 2 mg/kg (title 30 mg/kg), Third Formulation (Form 4), 1.00 h, individual animals): 538 ng/mL
concentration at 2 h (intravenous, 2 mg/kg, dose column 2 mg/kg (title 30 mg/kg), Third Formulation (Form 4), 2.00 h, individual animals): 332 ng/mL
concentration at 4 h (intravenous, 2 mg/kg, dose column 2 mg/kg (title 30 mg/kg), Third Formulation (Form 4), 4.00 h, individual animals): 149 ng/mL
concentration at 0 h [7]: 0 ng/mL
concentration at 0.25 h [7]: 0 ng/mL
concentration at 0.5 h [7]: 0 ng/mL
concentration at 1 h (other: sublingual, 5 mg/kg, Mean, SL, dose column 5 mg/kg (title 30 mg/kg), Fourth Formulation (Form 2), 1.0 h, N=4): 0 ng/mL
concentration at 2 h (other: sublingual, 5 mg/kg, Mean, SL, dose column 5 mg/kg (title 30 mg/kg), Fourth Formulation (Form 2), 2.0 h, N=4): 0.155 ng/mL
concentration at 4 h (other: sublingual, 5 mg/kg, Mean, SL, dose column 5 mg/kg (title 30 mg/kg), Fourth Formulation (Form 2), 4.0 h, N=4): 0.114 ng/mL
concentration at 8 h (other: sublingual, 5 mg/kg, Mean, SL, dose column 5 mg/kg (title 30 mg/kg), Fourth Formulation (Form 2), 8.0 h, N=4): 0.41 ng/mL
concentration at 24 h (other: sublingual, 5 mg/kg, Mean, SL, dose column 5 mg/kg (title 30 mg/kg), Fourth Formulation (Form 2), 24.0 h, N=4): 0.248 ng/mL
concentration at 32 h (other: sublingual, 5 mg/kg, Mean, SL, dose column 5 mg/kg (title 30 mg/kg), Fourth Formulation (Form 2), 32.0 h, N=4): 0.0803 ng/mL
concentration at 0 h [8]: 0 ng/mL
concentration at 0.25 h [8]: 0 ng/mL
concentration at 0.5 h [8]: 0 ng/mL
concentration at 1 h (other: sublingual, 5 mg/kg, Median, SL, dose column 5 mg/kg (title 30 mg/kg), Fourth Formulation (Form 2), 1.0 h, N=4): 0 ng/mL
concentration at 2 h (other: sublingual, 5 mg/kg, Median, SL, dose column 5 mg/kg (title 30 mg/kg), Fourth Formulation (Form 2), 2.0 h, N=4): 0 ng/mL
concentration at 4 h (other: sublingual, 5 mg/kg, Median, SL, dose column 5 mg/kg (title 30 mg/kg), Fourth Formulation (Form 2), 4.0 h, N=4): 0 ng/mL
concentration at 8 h (other: sublingual, 5 mg/kg, Median, SL, dose column 5 mg/kg (title 30 mg/kg), Fourth Formulation (Form 2), 8.0 h, N=4): 0.505 ng/mL
concentration at 24 h (other: sublingual, 5 mg/kg, Median, SL, dose column 5 mg/kg (title 30 mg/kg), Fourth Formulation (Form 2), 24.0 h, N=4): 0.182 ng/mL
concentration at 32 h (other: sublingual, 5 mg/kg, Median, SL, dose column 5 mg/kg (title 30 mg/kg), Fourth Formulation (Form 2), 32.0 h, N=4): 0 ng/mL
concentration at 0 h [9]: 0 ng/mL
concentration at 0.25 h [9]: 0 ng/mL
concentration at 0.5 h [9]: 0 ng/mL
Compound: CCCCNc1cc(C(=O)N(Cc2ccccc2)Cc2ccccc2)cc(S(N)(=O)=O)c1Oc1ccccc1 [Bumetanide Dibenzylamide, N, N-dibenzyl 3-aminosulfonyl-5-butylamino-4-phenoxybenzamide]
